According to US20120065126A1, “Pharmaceutical Compositions Containing Antifungal Peptides” (BASF SE, priority 2009, published 2012):

Experiments:
C. albicans (DSM 11948) = experiment: P18 in pharmaceutical base formulation (CFU); type: cell-based, Candida albicans; conditions: mixed 1:9 with suspension
Description: The aim of the experiment was to study the effect of a pharmaceutical base formulation with the P18 peptide ingredient (P18 sequence H-KWKLFKKIPKFLHLAKKF-NH2 (Bachem AG, Switzerland)). For this purpose, the following base formulation was used: […]
1% hydroxycellulose 10% propylene glycol made up with water.
Based on the base formulation, formulations with rising P18 concentrations (500 ppm to 10 000 ppm) were prepared from a 20% concentrate solution.
The effect of the formulations on C. albicans (DSM 11948) was studied.
YM growth medium (Becton, Dickinson and Company, Sparks, USA) 3 g of yeast extract 3 g of malt extract 5 g of peptone 10 g of dextrose make up to 1 liter, set pH 6.2
The growth test was effected as follows: 5 ml of YM medium were inoculated with C. albicans and incubated at 30° C. and 200 rpm overnight.
1.5 ml reaction vessels were each filled with 1 ml of YM medium and inoculated with the C. albicans suspension from the overnight culture such that an optical density—measured at 600 nm—of 0.1 was obtained at the start of the experiment. The resulting C. albicans suspension was mixed in a ratio of 1:9 (formulation: C. albicans suspension) with the formulations. 1 μl of the culture was diluted with 20 μl of YM medium after 5 minutes, 10 minutes, 20 minutes and 60 minutes, and then plated out. After incubation over 24 hours, the colonies on the plates were counted.

M. furfur [1] = experiment: Effect of P18 variants (CFU); type: cell-based, Malassezia furfur; conditions: 50 μM peptide, with DMSO; 24 h
Description: (§1) The studies described hereinafter were conducted on the Malassezia furfur strain DSM 6170.
The inhibitory effect of the following P18 variants on M. furfur was studied:
(§2) The growth test was effected as follows: a shake culture containing M472 Pityrosporum medium was inoculated with M. furfur and incubated with shaking at 30° C. and 200 rpm overnight.
A 96-well microtiter plate was filled with 100 μl per well of M472 Pityrosporum medium and inoculated with M. furfur suspension from the overnight culture. The M. furfur suspension was adjusted at the start of the experiment to an optical density, measured at 600 nm, of 0.1.
The peptide variants were dissolved with a final concentration of 1 mM in dimethyl sulfoxide (DMSO). It is also possible to dispense with DMSO and to use a purely aqueous peptide solution. 5 μl of this solution were added to 100 μl of M. furfur suspension (final concentration of the P18 peptide 50 μM). In a control mixture, the same amount of DMSO without P18 peptide was added.
The microtiter plate was incubated with shaking at 30°.
After 24 h, the colony forming units (CFU) were determined by streaking 10 μl of each of the suspensions and, after incubation over the course of 6 days, counting the colonies. Two independent experiments each with three identical mixtures were conducted, and the number of colony forming units was averaged.

M. furfur [2] = experiment: Kinetics of the effect of P18 in the presence of a shampoo base formulation (CFU); type: cell-based, Malassezia furfur; conditions: 10% (v/v) shampoo base formulation 31-3; 0.23-2.3 g/l; 5 min to 24 h
Description: The experiments were conducted as follows: [table] The Texapon NSO and Tego Betain L7 components were mixed and dissolved. NaOH was used to adjust the pH to pH 6-7. The growth test was effected as follows: a shake culture containing […]. furfur and incubated with shaking at 30° C. and 200 rpm overnight. A 96-well microtiter plate was filled with 100 μl per well of […]. furfur suspension from the overnight culture. The M. furfur suspension was adjusted at the start of the experiment to an optical density, measured at 600 nm, of 0.1. 10% (v/v) of shampoo base formulation 31-3 was added to the M. furfur suspension. P18 peptide was dissolved with a concentration of 230 g/l in water. […] The microtiter plate was incubated with shaking at 30°.

M. furfur [3] = experiment: Long-term stability of P18 in shampoo base formulations (CFU); type: cell-based, Malassezia furfur; conditions: formulations 31-1-10, 31-3-5, 31-3-2 stored at 40° C.; 0, 12 and 22 days
Description: as §1
The long-term stability of P18 peptide (H-KWKLFKKIPKFLHLAKKF-NH2; carboxyl terminus amidated) in shampoo base formulations was tested.
The Texapon NSO and Tego Betain L7 components were mixed and dissolved. NaOH was used to adjust the pH to pH 6-7. Thereafter, a 100 mM aqueous solution of peptide P18 was prepared. The appropriate volume of the 100 mM P18 peptide solution was added to each of the formulations, such that the final concentrations of peptide P18 listed in Table 15 were obtained.
The formulations were stored at 40° C.
After 0; 12 and 22 days, the effect of the formulations on M. furfur was studied.
as §2
A 96-well microtiter plate was filled with 100 μl per well of M472 Pityrosporum medium and inoculated with M. furfur suspension from the overnight culture. The M. furfur suspension was adjusted at the start of the experiment to an optical density, measured at 600 nm, of 0.1. […]
After 24 hours, the colony forming units (CFU) were determined. For this purpose, 1 μl and 10 μl of each of the suspensions were streaked and, after incubation over the course of 6 days, the colonies were counted.

H-KWKLFKKIPKFLHLAKKF-NH2 [P18, H-KWKLFKKIPKFLHLAKKF-NH2]
Colony forming units after the incubation time specified (C. albicans (DSM 11948); 10 000 ppm in the formulation, 5 minutes): 0.5 ± 0 CFU
Colony forming units after the incubation time specified (C. albicans (DSM 11948); 10 000 ppm in the formulation, 10 minutes): 0 ± 0 CFU
Colony forming units after the incubation time specified (C. albicans (DSM 11948); 10 000 ppm in the formulation, 20 minutes): 0 ± 0 CFU
Colony forming units after the incubation time specified (C. albicans (DSM 11948); 10 000 ppm in the formulation, 60 minutes): 0 ± 0 CFU
Colony forming units after the incubation time specified (C. albicans (DSM 11948); 500 ppm in the formulation, 5 minutes): 1484 ± 28 CFU
Colony forming units after the incubation time specified (C. albicans (DSM 11948); 500 ppm in the formulation, 10 minutes): 1445 ± 38 CFU
Colony forming units after the incubation time specified (C. albicans (DSM 11948); 500 ppm in the formulation, 20 minutes): 1262 ± 354 CFU
Colony forming units after the incubation time specified (C. albicans (DSM 11948); 500 ppm in the formulation, 60 minutes): 962 ± 738 CFU
Colony forming units after the incubation time specified (C. albicans (DSM 11948); 1000 ppm in the formulation, 5 minutes): 863 ± 553 CFU
Colony forming units after the incubation time specified (C. albicans (DSM 11948); 1000 ppm in the formulation, 10 minutes): 616 ± 76 CFU
Colony forming units after the incubation time specified (C. albicans (DSM 11948); 1000 ppm in the formulation, 20 minutes): 251 ± 109 CFU
Colony forming units after the incubation time specified (C. albicans (DSM 11948); 1000 ppm in the formulation, 60 minutes): 3.25 ± 1.8 CFU
Colony forming units after the incubation time specified (C. albicans (DSM 11948); 2000 ppm in the formulation, 5 minutes): 29 ± 23 CFU
Colony forming units after the incubation time specified (C. albicans (DSM 11948); 2000 ppm in the formulation, 10 minutes): 3.5 ± 3.5 CFU
Colony forming units after the incubation time specified (C. albicans (DSM 11948); 2000 ppm in the formulation, 20 minutes): 0.25 ± 0.4 CFU
Colony forming units after the incubation time specified (C. albicans (DSM 11948); 2000 ppm in the formulation, 60 minutes): 0 ± 0 CFU
Colony forming units after the incubation time specified (C. albicans (DSM 11948); 5000 ppm in the formulation, 5 minutes): 1 ± 0.7 CFU
Colony forming units after the incubation time specified (C. albicans (DSM 11948); 5000 ppm in the formulation, 10 minutes): 0 ± 0 CFU
Colony forming units after the incubation time specified (C. albicans (DSM 11948); 5000 ppm in the formulation, 20 minutes): 0 ± 0 CFU
Colony forming units after the incubation time specified (C. albicans (DSM 11948); 5000 ppm in the formulation, 60 minutes): 0 ± 0 CFU
Averaged number of colony forming units (CFU) (M. furfur [1]): 0 CFU
Effect compared with zinc pyrithione and climbazole at different contact times (M. furfur [2]): better properties than zinc pyrithione or climbazole
Long-term stability in shampoo base formulations (M. furfur [3]): stable properties
